In article PMC11436104 (Toxins, 2024):
Like-named read-outs stand apart in the source and are kept apart here. *1 amine or outer side, *2 acyl side, *3 side chain or, on linkers, in order; H or OH if unused. Where a SMILES comes first, the peptide text is derived from it. Bridges are numbered along the chain shown (N, C = ends). [ ]: non-standard residue; d: D form. Adda = CO[C@@H](Cc1ccccc1)[C@@H](C)/C=C(C)/C=C/[C@H](N[*:1])[C@H](C)C(=O)[*:2]; dAsp(3S-Me) = C[C@H](C(=O)[*:3])[C@@H](N[*:1])C(=O)[*:2]; d(γGlu) = O=C(O)[C@@H](CCC(=O)[*:2])N[*:1]; hTyr = N[C@@H](CCc1ccc(O)cc1)C(=O)O; NMeA = CN[C@@H](C)C(=O)O; NMeDha = C=C(NC)C(=O)O; CO = O=C([*:1])[*:2]

How the values were obtained:
[1] = tested on: U87-MG cells; assay: Cytoskeleton immunostaining (microfilaments, microtubules), confocal microscopy; format: cell-based, human; settings: 10 µM, 24 h
Description: (§1) To determine the influence of the CCPs on actin microfilament and microtubule organization, the cells were labeled with rhodamine-conjugated phalloidin (Molecular Probes, Cat. # R415), and mouse monoclonal anti-bovine α-tubulin antibodies (Molecular Probes Cat. # A11126) and secondary Alexa-488 goat anti-mouse IgG (Molecular Probes Cat. # A-11017), respectively. The cells (3000/well) were plated into 16-well plates (Culture Well Chambered Coverglass for Cell Culture; […].
(§2) The cells in all the experiments were exposed to the CCPs for an additional 24 h in the CO2 incubator at 37 °C in a 5% CO2 atmosphere before they were fixed.
(§3) Fixing and staining. The cells were washed in phosphate-buffered saline (PBS) and fixed in 3.7% paraformaldehyde in either PBS (37 °C, 30 min; for microfilaments, microtubules, nestin) or in ice-cold methanol (4 °C, 10 min; for GFAP, desmoplakin I+II). Then the cells were permeabilized in PBS containing 0.1% Triton X-100 (v/v; Merck, Germany) for 20 min and blocked in 4% bovine serum albumin (Sigma) at room temperature for 10 min. For desmoplakin I+II visualization, the cells were blocked in 10% fetal bovine serum (Sigma) for 60 min without cell permeabilization. Microfilaments were stained with rhodamine-conjugated phalloidin (1:40) for 30 min at room temperature. Microtubules were visualized by immunostaining using an anti-α-tubulin antibody overnight at 4 °C (1:200 in PBS containing Ca^2+, 0.1% [v/v] Tween-20) and the secondary antibodies labeled with Alexa-488 goat anti-mouse IgG (1:1000; 30 min at room temperature). Intermediate filaments were stained using anti-nestin (1:500; overnight at 4 °C) and anti-GFAP (1:500, overnight at 4 °C) antibodies. The anti-nestin-labeled cells were visualized using secondary antibodies labeled with Alexa-488 goat anti-mouse IgG and the anti-GFAP-labeled cells with Alexa-488 anti-rabbit IgG (1:1000 dilution, room temperature, 30 min). Desmoplakin I+II were stained with a mouse anti-desmoplakin I+II antibody (1:500 dilution; room temperature, 60 min) and visualized with Alexa-488 goat anti-mouse IgG (1:1000 dilution; room temperature, 30 min). The cell nuclei were stained with To-Pro-3 (Molecular Probes; 1:1000 dilution; room temperature, 30 min). After each step, the samples were washed three times with PBS. Finally, all the cell preparations were immersed in an antifade reagent (Prolong Gold; Molecular Probes) to prevent photobleaching.
(§4) Microscopy. […] The cell preparations were also examined under light microscopy (Eclipse TE 3000; Nikon, Japan), and the images were recorded under phase contrast and epifluorescence (i.e., B-2A and G-2A filters, respectively).

[2] = tested on: NHAs; assay: as above; format: cell-based, human; settings: 10 µM, 24 h
Description: as §1, §2, §3, §4

[3] = Insertion into lipid monolayer (Langmuir trough, surface pressure); format: physicochemical; settings: for insertion kinetics into the lipid monolayer (surface pressure increase): 20 µM, initial pressure ~11 mN/m; for critical pressure of insertion: extrapolation to zero pressure variation (ΔΠ = 0), 20 µM CCP
Description: (§5) Lateral pressure measurements were carried out in a Langmuir trough (MicroTrough-S system; Kibron, Helsinki, Finland) at room temperature (25 °C) under constant stirring. The aqueous sub-phase was 500 µL 10 mM Hepes, 200 mM NaCl, and pH 7.5.
To create lipid monolayers, dioleylposphatidylcholine and cholesterol (70:30) were dissolved together in chloroform/methanol (2:1, v/v) and gently spread over the sub-phase. The desired initial surface pressure was obtained by changing the amounts of the lipid mixture applied to the air–water interface. After solvent evaporation (10 min), each CCP was separately injected through a hole that was connected to the sub-phase, at a final concentration in the Langmuir trough of 20 µM. The changes in surface pressure versus time were recorded until a stable signal was obtained. […] The increase in the surface pressure (∆Π) was plotted versus the initial pressure (Π0), and the critical pressures were determined using linear regression with Prism 5 software (GraphPad, Inc., La Jolla, CA, USA).

[4] = tested on: U87-MG cells; assay: Intermediate filament immunostaining (nestin, GFAP), confocal microscopy; format: cell-based, human
Description: (§6) For the intermediate filaments, visualization at 1 µM MC-LR was used as the positive control. The cells were stained with rabbit monoclonal anti-GFAP (Merck Millipore, Bedford, MA, USA, Cat. # AB5804) and secondary Alexa-488 goat anti-rabbit IgG (Molecular Probes, Cat. # A-11034) antibodies and with mouse monoclonal anti-nestin (Merck Millipore, Cat. # MAB5326) and secondary Alexa-488 goat anti-mouse IgG (Molecular Probes, Cat. # A-11017) antibodies.
as §2, §3, §4

[5] = Interaction with the air–water interface (Langmuir trough, no lipids); format: physicochemical; settings: absence of lipids, 0–30 µM injected, 25 °C, pH 7.5
Description: as §5

[6] = tested on: U87-MG cells; assay: Cell morphology, light microscopy (phase contrast); format: cell-based, human
[7] = tested on: NHAs; assay: Intermediate filament immunostaining (nestin, GFAP), confocal microscopy; format: cell-based, human
Description: as §6, §2, §3, §4

## CC[C@H](C)[C@@H]1NC(=O)[C@H](Cc2ccc(OC)cc2)N(C)C(=O)[C@H]([C@@H](C)O)N2C(=O)[C@H](CC[C@H]2O)NC(=O)[C@H](CC(C)C)NC(=O)[C@@H](NC(=O)[C@H](CCC(N)=O)NC(=O)[C@H](CCc2ccc(O)cc2)NC(=O)[C@@H](O)CO)[C@@H](C)OC1=O
[1]
  microfilament (actin) organization: aggregation of the cortical microfilaments along the basal membrane and degradation of the membrane ruffles
  microtubule organization: the microtubules were reorganized and concentrated around the nucleus
[2]
  microfilament and microtubule organization: strong cytolytic effects on the NHAs, with the collapse of the microfilaments in the center of the cell
[3]
  insertion kinetics into the lipid monolayer (surface pressure increase): interacted rapidly with the monolayer
  critical pressure of insertion: 34.2 mN/m
[4]; U87-MG, 24 h
  GFAP filament organization: concentration of the GFAP filaments was observed along the entire cell body
[5]
  concentration at which saturation of the air–water interface was observed: 25 µM

## C=C1C(=O)N[C@H](C)C(=O)N[C@@H](CC(C)C)C(=O)N[C@@H](C(=O)O)[C@H](C)C(=O)N[C@@H](CCCNC(=N)N)C(=O)N[C@@H](/C=C/C(C)=C/[C@H](C)[C@H](Cc2ccccc2)OC)[C@H](C)C(=O)N[C@@H](C(=O)O)CCC(=O)N1C [MC-LR, Microcystin-LR, reference compound] (R[Adda][d(γGlu)][NMeDha][dA]L[dAsp(3S-Me)]-OH; lactam N-7)
[6]
  morphological changes under light microscopy: loss of astrocytic domain organization, but also in a reduction in cell numbers
[4]
  GFAP filament organization: concentration of the GFAP filaments was observed along the entire cell body
[7]
  nestin organization: most intense nestin concentration

## CC(C)[C@@H]1NC(=O)[C@H](NC(=O)N[C@@H](CCCNC(=N)N)C(=O)O)CCCCNC(=O)[C@H](Cc2ccccc2)NC(=O)[C@H](C)N(C)C(=O)[C@H](CCc2ccc(O)cc2)NC1=O [anabaenopeptin B] ({Arg-CO}-[dK]V[hTyr][NMeA]F; lactam 1-C)
[3]
  insertion kinetics into the lipid monolayer (surface pressure increase): interacted rapidly with the monolayer
  critical pressure of insertion: 27.1 mN/m
[7]; NHAs, 24 h
  GFAP immunolabeling, cell shape: characteristic twisted outgrowths

## CC[C@H](C)[C@@H]1NC(=O)[C@H](NC(=O)N[C@@H](CCCNC(=N)N)C(=O)O)CCCCNC(=O)[C@H](Cc2ccccc2)NC(=O)[C@H](C)N(C)C(=O)[C@H](CCc2ccc(O)cc2)NC1=O [anabaenopeptin F] ({Arg-CO}-[dK]I[hTyr][NMeA]F; lactam 1-C)
[1]
  microfilament (actin) organization: actin aggregation
